Test results published in US20130183249A1, “Stimulus Sensitive Magnetic Nanocomposite Using Pyrene Polymer, and Contrast Medium Composition Containing the Nanocomposite” (INDUSTRY ACADEMIC COOPERATION FOUNDATION YOUNSEI UNIVERSITY, priority 2010, published 2013).

System: NIH3T6.7 and MDA-MB-231 cells
Assay: Cell targeting ability and drug release by fluorescence microscopy
Conditions: 0.05 mM based on doxorubicin, 30 minutes incubation
Description: For each of 12 wells, a cover glass was put on a bottom, 3×10^5 of each of NIH3T6.7 and MDA-MB-231 cells were dispensed on the glass per well to incubate for 12 hours, and washed with PBS three times. After the washing with PBS, 0.05 mM of a Herceptin-binding target-specific stimuli-sensitive nanocomposite based on doxorubicin, an IgG-binding stimuli-sensitive nanocomposite as a control group, and doxorubicin were each added to the cells, and incubated for 30 minutes. After the cells were washed with PBS, a dye for a cell nucleus (Hoechst dye) was added to the cells, reacted for 10 minutes and washed with PBS three times, and then the cover glass was fixed to a slide glass to observe microscope images.

COc1cccc2c1C(=O)c1c(O)c3c(c(O)c1C2=O)C[C@@](O)(C(=O)CO)C[C@@H]3O[C@H]1C[C@H](N)[C@H](O)[C@H](C)O1 [Doxorubicin, doxorubicin]
doxorubicin identified in cell nucleus (microscope images): identified from a nucleus of the doxorubicin-treated cell without distinction of cells
